From patent US20220354098A1, “Genetically Modified Non-Human Animals and Methods of Use Thereof” (YALE UNIVERSITY, priority 2019, published 2022)

Assays:
[1] = biological target: T1, scavenger receptor B1 (SR-B1) (Mus musculus, UniProt Q61009); test: SR-B1 inhibitors in RGSKI mice: survival of transfused human RBCs in peripheral blood; type: in vivo; details: 2 mg per mouse, one hour before human RBC infusion
T1 construct: endogenous in cells
T1 sequence (Q61009 1-509): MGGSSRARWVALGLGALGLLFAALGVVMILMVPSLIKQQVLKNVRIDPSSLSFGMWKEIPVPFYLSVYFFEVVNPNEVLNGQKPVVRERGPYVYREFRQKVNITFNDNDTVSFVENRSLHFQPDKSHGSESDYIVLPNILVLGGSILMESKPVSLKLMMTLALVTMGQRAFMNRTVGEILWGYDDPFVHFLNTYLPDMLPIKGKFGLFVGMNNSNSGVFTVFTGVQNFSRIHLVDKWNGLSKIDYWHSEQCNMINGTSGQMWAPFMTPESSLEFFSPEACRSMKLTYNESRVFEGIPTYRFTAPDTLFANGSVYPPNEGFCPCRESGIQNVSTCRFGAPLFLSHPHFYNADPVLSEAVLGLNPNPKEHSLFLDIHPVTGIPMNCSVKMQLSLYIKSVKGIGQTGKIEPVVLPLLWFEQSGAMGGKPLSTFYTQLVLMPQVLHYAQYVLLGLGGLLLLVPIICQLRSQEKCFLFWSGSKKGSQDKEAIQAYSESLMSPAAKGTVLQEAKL
Method: (§1) Inhibitor of scavenger receptor B1 can protect human RBCs in the mouse system. RGSKI mice were treated with scavenger receptor B1 named BLT-1 (2 mg per mouse). One hour after treatment, mice were infused with human RBCs and peripheral blood was collected at indicated time points. Control: PBS.
as §1, with “ITX7650 or ITX5061 (1” for “BLT-1 (2”, “mouse) obtained from iTherX.” for “mouse).”

Fah-KO mouse hepatocytes = test: NTBC rescue of Fah-KO mouse hepatocytes; type: in vivo; details: NTBC in drinking water
Description: MISTRGFah are viable, fertile, and can be bred as homozygotes when maintained on drinking water supplemented with 2-(2-nitro-4-trifluoromethylbenzoyl)-1,3-cyclohexanedione (NTBC), that blocks tyrosine metabolism upstream of FAH and prevents buildup of hepatotoxic metabolites. At 8 weeks of age, MISTRGFah. mice were implanted with commercially available, adult human hepatocytes (HuHep) via direct injection into the splenic vein, followed by gradual withdrawal of NTBC water. Regulated buildup of intracellular FA results in death of murine Fah^−/− hepatocytes and regeneration with HuHep with up to 90% repopulation by HuHep (Azuma H et al., 2007, Nature Biotechnology, 25:903-910). When plasma human albumin levels reached 2 mg/dL (FIG. 11A), indicative of significant (˜80%) HuHep repopulation, HuHepMISTRGFah mice were sublethally (80cGy) irradiated and each mouse was engrafted with […] fetal liver (FL) derived CD34+ cells. MISTRG (80cGy), MISTRGW41 and NSGW41 (no irrad) served as controls to assess the effects of human liver vs W41 mutation vs cytokine humanization on erythropoiesis and huRBC in circulation. 10 weeks post transplantation mice were analyzed for engraftment and. specifically erythroid maturation and PB huRBC.

C3 and C5 complement = details: cited from earlier work

CCCCCCC1CCCC1=NNC(N)=S (centres unmarked) [BLT-1]
Protection of transfused human red blood cells in mouse periphery [1]: protected

O=C1CCCC(=O)C1C(=O)c1ccc(C(F)(F)F)cc1[N+](=O)[O-] [NTBC, 2-(2-nitro-4-trifluoromethylbenzoyl)-1,3-cyclohexanedione]
Rescue of Fah-KO mouse hepatocytes (Fah-KO mouse hepatocytes): rescues the Fah-KO mouse hepatocytes from death

cobra venom factor
Maximum human RBC chimerism (C3 and C5 complement; CVF with concurrent liposomal clodronate): ~3% | % of circulating huRBC (C3 and C5 complement; only in conjunction with liposomal clodronate in NOD/SCID mice): increased the % of circulating huRBC | huRBC survival (C3 and C5 complement; only when MΦs are depleted concurrently with liposomal clodronate): significantly prolonged
